# Assay results as given in PubChem BioAssay AID1259407 (Chemical Carcinogenesis Research Information System (CCRIS), 2018).
# Calls of active or inactive are those of the source. How the calls were made is not given here.
# System: CCRIS mutagenicity, Ames/micronucleus/aberration tests
# Experiment: CCRIS mutagenicity studies
# Text: The CCRIS database contains chemical records with carcinogenicity, mutagenicity, tumor promotion, and tumor inhibition test results. It was developed by the National Cancer Institute (NCI). Data are derived from studies cited in primary journals, current awareness tools, NCI reports, and other sources. Test results have been reviewed by experts in carcinogenesis and mutagenesis.
# CCRIS provides historical information from the years 1985 - 2011. It is no longer updated.
# This is an archive assay for CCRIS mutagenicity studies.
# [1] = Test System: AMES SALMONELLA TYPHIMURIUM, Strain/Indicator: TA100, Metabolic Activation: NONE, Method: PREINCUBATION
smiles,measurement,setting,value
COc1cccc2c1C1(C)OOC1(C)O2 (centres undefined),mutagenic call,[1],active; positive
COc1cc2nc3cc(N)ccc3nc2cc1N,mutagenic call,"Test System: AMES SALMONELLA TYPHIMURIUM, Strain/Indicator: TA98, Metabolic Activation: S-9, Method: SUSPENSION/PLATE",active; positive
C=CC(=O)OCCCCCCOC(=O)C=C,mutagenic call,"Test System: AMES SALMONELLA TYPHIMURIUM, Strain/Indicator: TA97, Metabolic Activation: HAMSTER, LIVER, S-9, AROCLOR 1254 (10%), Method: PREINCUBATION",inactive; negative
same,mutagenic call,"Test System: AMES SALMONELLA TYPHIMURIUM, Strain/Indicator: TA97, Metabolic Activation: HAMSTER, LIVER, S-9, AROCLOR 1254 (30%), Method: PREINCUBATION",inactive; negative
same,mutagenic call,"Test System: AMES SALMONELLA TYPHIMURIUM, Strain/Indicator: TA97, Metabolic Activation: NONE, Method: PREINCUBATION",inactive; negative
same,mutagenic call,"Test System: AMES SALMONELLA TYPHIMURIUM, Strain/Indicator: TA97, Metabolic Activation: RAT, LIVER, S-9, AROCLOR 1254 (10%), Method: PREINCUBATION",inactive; negative
same,mutagenic call,"Test System: AMES SALMONELLA TYPHIMURIUM, Strain/Indicator: TA97, Metabolic Activation: RAT, LIVER, S-9, AROCLOR 1254 (30%), Method: PREINCUBATION",inactive; negative
same,mutagenic call,"Test System: AMES SALMONELLA TYPHIMURIUM, Strain/Indicator: TA98, Metabolic Activation: HAMSTER, LIVER, S-9, AROCLOR 1254 (10%), Method: PREINCUBATION",inactive; negative
same,mutagenic call,"Test System: AMES SALMONELLA TYPHIMURIUM, Strain/Indicator: TA98, Metabolic Activation: HAMSTER, LIVER, S-9, AROCLOR 1254 (30%), Method: PREINCUBATION",inactive; negative
same,mutagenic call,"Test System: AMES SALMONELLA TYPHIMURIUM, Strain/Indicator: TA98, Metabolic Activation: NONE, Method: PREINCUBATION",inactive; negative
same,mutagenic call,"Test System: AMES SALMONELLA TYPHIMURIUM, Strain/Indicator: TA98, Metabolic Activation: NONE, Method: STANDARD PLATE",inactive; negative
same,mutagenic call,"Test System: AMES SALMONELLA TYPHIMURIUM, Strain/Indicator: TA98, Metabolic Activation: RAT, LIVER, S-9, AROCLOR 1254 (10%), Method: PREINCUBATION",inactive; negative
same,mutagenic call,"Test System: AMES SALMONELLA TYPHIMURIUM, Strain/Indicator: TA98, Metabolic Activation: RAT, LIVER, S-9, AROCLOR 1254 (30%), Method: PREINCUBATION",inactive; negative
same,mutagenic call,"Test System: AMES SALMONELLA TYPHIMURIUM, Strain/Indicator: TA98, Metabolic Activation: RAT, LIVER, S-9, AROCLOR 1254, Method: STANDARD PLATE",inactive; negative
same,mutagenic call,"Test System: AMES SALMONELLA TYPHIMURIUM, Strain/Indicator: TA98, Metabolic Activation: RAT, LIVER, S-9, SODIUM PHENOBARBITAL, Method: STANDARD PLATE",inactive; negative
same,mutagenic call,"Test System: AMES SALMONELLA TYPHIMURIUM, Strain/Indicator: TA100, Metabolic Activation: HAMSTER, LIVER, S-9, AROCLOR 1254 (10%), Method: PREINCUBATION",inactive; negative
same,mutagenic call,"Test System: AMES SALMONELLA TYPHIMURIUM, Strain/Indicator: TA100, Metabolic Activation: HAMSTER, LIVER, S-9, AROCLOR 1254 (30%), Method: PREINCUBATION",inactive; negative
same,mutagenic call,[1],inactive; negative
same,mutagenic call,"Test System: AMES SALMONELLA TYPHIMURIUM, Strain/Indicator: TA100, Metabolic Activation: NONE, Method: STANDARD PLATE",inactive; negative
same,mutagenic call,"Test System: AMES SALMONELLA TYPHIMURIUM, Strain/Indicator: TA100, Metabolic Activation: RAT, LIVER, S-9, AROCLOR 1254 (10%), Method: PREINCUBATION",inactive; negative
same,mutagenic call,"Test System: AMES SALMONELLA TYPHIMURIUM, Strain/Indicator: TA100, Metabolic Activation: RAT, LIVER, S-9, AROCLOR 1254 (30%), Method: PREINCUBATION",inactive; negative
same,mutagenic call,"Test System: AMES SALMONELLA TYPHIMURIUM, Strain/Indicator: TA100, Metabolic Activation: RAT, LIVER, S-9, AROCLOR 1254, Method: STANDARD PLATE",inactive; negative
same,mutagenic call,"Test System: AMES SALMONELLA TYPHIMURIUM, Strain/Indicator: TA100, Metabolic Activation: RAT, LIVER, S-9, SODIUM PHENOBARBITAL, Method: STANDARD PLATE",inactive; negative
same,mutagenic call,"Test System: AMES SALMONELLA TYPHIMURIUM, Strain/Indicator: TA1535, Metabolic Activation: HAMSTER, LIVER, S-9, AROCLOR 1254 (10%), Method: PREINCUBATION",inactive; negative
same,mutagenic call,"Test System: AMES SALMONELLA TYPHIMURIUM, Strain/Indicator: TA1535, Metabolic Activation: HAMSTER, LIVER, S-9, AROCLOR 1254 (30%), Method: PREINCUBATION",inactive; negative
same,mutagenic call,"Test System: AMES SALMONELLA TYPHIMURIUM, Strain/Indicator: TA1535, Metabolic Activation: NONE, Method: PREINCUBATION",inactive; negative
same,mutagenic call,"Test System: AMES SALMONELLA TYPHIMURIUM, Strain/Indicator: TA1535, Metabolic Activation: NONE, Method: STANDARD PLATE",inactive; negative
same,mutagenic call,"Test System: AMES SALMONELLA TYPHIMURIUM, Strain/Indicator: TA1535, Metabolic Activation: RAT, LIVER, S-9, AROCLOR 1254 (10%), Method: PREINCUBATION",inactive; negative
same,mutagenic call,"Test System: AMES SALMONELLA TYPHIMURIUM, Strain/Indicator: TA1535, Metabolic Activation: RAT, LIVER, S-9, AROCLOR 1254 (30%), Method: PREINCUBATION",inactive; negative
same,mutagenic call,"Test System: AMES SALMONELLA TYPHIMURIUM, Strain/Indicator: TA1535, Metabolic Activation: RAT, LIVER, S-9, AROCLOR 1254, Method: STANDARD PLATE",inactive; negative
same,mutagenic call,"Test System: AMES SALMONELLA TYPHIMURIUM, Strain/Indicator: TA1535, Metabolic Activation: RAT, LIVER, S-9, SODIUM PHENOBARBITAL, Method: STANDARD PLATE",inactive; negative
same,mutagenic call,"Test System: AMES SALMONELLA TYPHIMURIUM, Strain/Indicator: TA1537, Metabolic Activation: HAMSTER, LIVER, S-9, AROCLOR 1254 (10%), Method: PREINCUBATION",inactive; negative
same,mutagenic call,"Test System: AMES SALMONELLA TYPHIMURIUM, Strain/Indicator: TA1537, Metabolic Activation: NONE, Method: PREINCUBATION",inactive; negative
same,mutagenic call,"Test System: AMES SALMONELLA TYPHIMURIUM, Strain/Indicator: TA1537, Metabolic Activation: NONE, Method: STANDARD PLATE",inactive; negative
same,mutagenic call,"Test System: AMES SALMONELLA TYPHIMURIUM, Strain/Indicator: TA1537, Metabolic Activation: RAT, LIVER, S-9, AROCLOR 1254 (10%), Method: PREINCUBATION",inactive; negative
same,mutagenic call,"Test System: AMES SALMONELLA TYPHIMURIUM, Strain/Indicator: TA1537, Metabolic Activation: RAT, LIVER, S-9, AROCLOR 1254, Method: STANDARD PLATE",inactive; negative
same,mutagenic call,"Test System: AMES SALMONELLA TYPHIMURIUM, Strain/Indicator: TA1537, Metabolic Activation: RAT, LIVER, S-9, SODIUM PHENOBARBITAL, Method: STANDARD PLATE",inactive; negative
same,mutagenic call,"Test System: AMES SALMONELLA TYPHIMURIUM, Strain/Indicator: TA1538, Metabolic Activation: NONE, Method: STANDARD PLATE",inactive; negative
same,mutagenic call,"Test System: AMES SALMONELLA TYPHIMURIUM, Strain/Indicator: TA1538, Metabolic Activation: RAT, LIVER, S-9, AROCLOR 1254, Method: STANDARD PLATE",inactive; negative
same,mutagenic call,"Test System: AMES SALMONELLA TYPHIMURIUM, Strain/Indicator: TA1538, Metabolic Activation: RAT, LIVER, S-9, SODIUM PHENOBARBITAL, Method: STANDARD PLATE",inactive; negative
C1=Cc2c3ccc4cccc5ccc(c6cccc1c26)c3c45,mutagenic call,"Test System: AMES SALMONELLA TYPHIMURIUM, Strain/Indicator: TA98, Metabolic Activation: RAT, LIVER, S-9, AROCLOR 1254 (0.55 MG), Method: STANDARD PLATE",active; positive
same,mutagenic call,"Test System: AMES SALMONELLA TYPHIMURIUM, Strain/Indicator: TA100, Metabolic Activation: RAT, LIVER, S-9, AROCLOR 1254 (0.55 MG), Method: STANDARD PLATE",active; positive
same,mutagenic call,"Test System: AMES SALMONELLA TYPHIMURIUM, Strain/Indicator: TA104, Metabolic Activation: RAT, LIVER, S-9, AROCLOR 1254 (0.55 MG), Method: STANDARD PLATE",active; positive
same,mutagenic call,"Test System: AMES SALMONELLA TYPHIMURIUM, Strain/Indicator: TA1535, Metabolic Activation: RAT, LIVER, S-9, AROCLOR 1254 (0.55 MG), Method: STANDARD PLATE",inactive; negative
same,mutagenic call,"Test System: AMES SALMONELLA TYPHIMURIUM, Strain/Indicator: TA1537, Metabolic Activation: RAT, LIVER, S-9, AROCLOR 1254 (0.55 MG), Method: STANDARD PLATE",active; positive
same,mutagenic call,"Test System: AMES SALMONELLA TYPHIMURIUM, Strain/Indicator: TA1538, Metabolic Activation: RAT, LIVER, S-9, AROCLOR 1254 (0.55 MG), Method: STANDARD PLATE",active; positive
Cc1ccc2c(c1)c(=NC(=O)CCCCl)sn2C(=O)CCCCl,mutagenic call,"Test System: AMES SALMONELLA TYPHIMURIUM, Strain/Indicator: TA100, Metabolic Activation: S-9, Method: STANDARD PLATE",inactive; negative
OCc1ccc(-c2nccc3c2[nH]c2ccccc23)o1,mutagenic call,[1],active; positive
CC(=O)ON(C(C)=O)c1ccc(/C=C/c2ccccc2)cc1,mutagenic call,"Test System: CHINESE HAMSTER V-79, Strain/Indicator: V-79/6-THIOGUANINE, Metabolic Activation: NONE, Method: STANDARD PLATE",active; positive
